Experiments:
[1] = Metabolic stability in mouse liver microsomes; format: in vitro ADME; details: 5 μM, with NADPH, vs verapamil
Procedure: A standard metabolic stability assay was performed in the presence of mouse or human liver microsomes. YC-001 (5 μM) was incubated with the microsomes (0.125 mg mL^−1) resuspended in 0.2 mL of PBS buffer, pH 7.4 composed of 10 mM Na2HPO4, 1.8 mM KH2PO4, 137 mM NaCl, and 2.7 mM KCl. The enzymatic reaction to produce oxidized metabolites was initiated by addition of NADPH (1 mM). Samples were incubated at 37° C. for up to 240 min. Incubation without the cofactor was conducted in parallel to assess NADPH-independent clearance. The reactions were stopped with 0.2 mL of methanol followed by 0.3 mL chloroform. Residual YC-001 was extracted by vigorous shaking. To facilitate phase separation, the samples were spun down for 2 min, 15,000×g. The chloroform fraction was collected, dried down, and the extracted organic compounds were redissolved in 0.2 mL of methanol. To quantify YC-001, the samples were injected onto an Eclipse XDB-C18 column (4.6×150 mm, 5 μm) (Agilent Technologies) equilibrated with solvent composed of 30% acetonitrile in water (v/v), and 0.1% formic acid. YC-001 was eluted in a gradient of acetonitrile in water (30-100%) developed within 15 min at a flow rate of 1 mL min^−1, detected at 350 nm, and quantified by correlating peak areas with known quantities of an original synthetic standard. […]

[2] = target: T1, human clarin-1 N48K (Homo sapiens, UniProt P58418, N48K); assay: Image-based analysis of clarin-1 N48K-Venus in HEK 293 cells; format: cell-based
T1 sequence (P58418 1-232 N48K): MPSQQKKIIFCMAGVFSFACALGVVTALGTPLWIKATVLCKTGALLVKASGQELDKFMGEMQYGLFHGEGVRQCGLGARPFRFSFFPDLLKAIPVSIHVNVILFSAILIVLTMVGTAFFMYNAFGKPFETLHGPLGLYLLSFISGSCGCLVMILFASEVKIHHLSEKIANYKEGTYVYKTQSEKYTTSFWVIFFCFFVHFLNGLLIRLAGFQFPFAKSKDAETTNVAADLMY
Procedure: HEK 293 stable cells co-expressing human clarin-1 N48K-Venus fluorescent protein and DsRed-Express-DR fusion protein were obtained from Dr. Yoshikazu Imanishi at Case Western Reserve University (CWRU). Cells were cultured in DMEM medium with 10% FBS following guidelines from ATCC. To test effects of YC-001 treatments on clarin-1 N48K-Venus amounts in these cells, an image-based assay was performed. Briefly, cells were seeded at 20,000 cells per well in 40 μL per well DMEM medium with 10% FBS in a 384-well PerkinElmer View plate coated with poly-D-lysine and cultured at 37° C. with 5% CO2 for 24 h. Cells then were treated with 10 μL per well DMEM medium with 10% FBS containing 5× the final concentration of tested compounds. […] Each compound was tested with 10 doses in a 2-fold dilution series, featuring 3 biological replicates. The 384-well plate was put back for incubation at 37° C. with 5% CO2. After 24 h of exposure to test compounds, the plate was removed, and the medium was aspirated and replaced by 20 μL per well of 4% paraformaldehyde for fixation at RT for 20 min. […] Images were analyzed by the Columbus storage and analysis system (Perkin Elmer). Hoechst33342 fluorescence images were used to define nuclei and count cells. […] YFP and DsRed fluorescence intensities per cell were measured in each well.

O=C1OCC(c2ccc(Cl)s2)=C1c1cccs1 [YC-001]
initial clearance in liver microsomes [1]: even higher initial clearance
amount or stability of the clarin-1 N48K mutant [2]: did not affect the amount or stability

Reference: patent publication US12251373B2, “Compounds and methods of treating retinal degeneration” (CASE WESTERN RESERVE UNIVERSITY, priority 2017, dated 2025)
